# pIC50: −log10 of the molar value.
# How the values were obtained:
# [1] = target: T1, P2X purinoceptor 7 (Homo sapiens, UniProt Q99572); experiment: Antagonist activity at human recombinant P2X7 receptor assessed as inhibition of BzATP-induced calcium flux by FLIPR assay; type: functional
# T1 sequence (Q99572 whole entry): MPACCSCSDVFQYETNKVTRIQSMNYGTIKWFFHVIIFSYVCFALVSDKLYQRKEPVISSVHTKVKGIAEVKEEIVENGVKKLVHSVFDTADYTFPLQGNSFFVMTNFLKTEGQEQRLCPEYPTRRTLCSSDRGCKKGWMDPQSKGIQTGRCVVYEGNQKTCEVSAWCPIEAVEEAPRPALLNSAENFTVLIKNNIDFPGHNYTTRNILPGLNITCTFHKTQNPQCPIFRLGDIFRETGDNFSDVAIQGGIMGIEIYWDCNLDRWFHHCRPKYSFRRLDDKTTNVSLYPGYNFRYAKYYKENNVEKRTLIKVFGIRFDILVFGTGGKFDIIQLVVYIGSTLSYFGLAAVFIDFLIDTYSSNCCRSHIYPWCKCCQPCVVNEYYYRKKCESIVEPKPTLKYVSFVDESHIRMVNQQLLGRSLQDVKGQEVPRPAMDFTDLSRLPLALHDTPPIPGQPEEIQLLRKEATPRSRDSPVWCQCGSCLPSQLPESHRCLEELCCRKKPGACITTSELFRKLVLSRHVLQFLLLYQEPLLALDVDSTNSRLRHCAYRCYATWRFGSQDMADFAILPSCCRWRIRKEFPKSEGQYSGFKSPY
# [2] = target: T2, P2X purinoceptor 7 (Rattus norvegicus, UniProt Q64663); experiment: Antagonist activity at rat recombinant P2X7 receptor assessed as inhibition of BzATP-induced calcium flux by FLIPR assay; type: functional
# T2 sequence (Q64663 whole entry): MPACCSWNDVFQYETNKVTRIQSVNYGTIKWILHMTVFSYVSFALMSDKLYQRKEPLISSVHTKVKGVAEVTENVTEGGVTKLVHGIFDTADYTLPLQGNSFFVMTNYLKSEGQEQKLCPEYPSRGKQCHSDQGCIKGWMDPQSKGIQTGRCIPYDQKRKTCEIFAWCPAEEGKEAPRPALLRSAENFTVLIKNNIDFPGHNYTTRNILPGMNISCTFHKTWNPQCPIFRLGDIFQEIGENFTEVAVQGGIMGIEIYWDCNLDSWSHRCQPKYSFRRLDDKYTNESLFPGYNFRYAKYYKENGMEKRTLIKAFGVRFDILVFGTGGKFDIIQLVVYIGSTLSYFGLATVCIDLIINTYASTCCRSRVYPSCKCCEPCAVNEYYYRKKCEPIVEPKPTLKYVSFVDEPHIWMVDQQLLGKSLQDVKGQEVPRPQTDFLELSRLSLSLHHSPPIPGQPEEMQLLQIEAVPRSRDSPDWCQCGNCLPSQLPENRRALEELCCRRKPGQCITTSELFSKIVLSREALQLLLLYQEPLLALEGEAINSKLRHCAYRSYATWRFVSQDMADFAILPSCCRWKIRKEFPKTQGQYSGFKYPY
pIC50 [1],pIC50 [2],SMILES
6.93,5.88,Clc1cccc(-n2ncnc2NCc2cccnc2)c1Cl
< 5.00,< 5.00,Clc1cccc(-n2ncnc2NCc2ccncc2)c1Cl
5.79,4.98,COc1ccc(CNc2ncnn2-c2cccc(Cl)c2Cl)cc1
7.31,6.54,CSc1ccccc1CNc1ncnn1-c1cccc(Cl)c1Cl
6.99,5.69,COc1ccccc1Nc1ncnn1-c1cccc(Cl)c1Cl
7.24,6.15,COc1ccccc1CNc1ncnn1-c1cccc(Cl)c1Cl
7.34,6.31,CCOc1ccccc1CNc1ncnn1-c1cccc(Cl)c1Cl
7.32,6.68,Clc1cccc(-n2ncnc2NCc2ccccc2)c1Cl
7.68,6.70,Cc1ccccc1CNc1ncnn1-c1cccc(Cl)c1Cl
6.81,5.99,Cc1cccc(CNc2ncnn2-c2cccc(Cl)c2Cl)c1
6.32,5.15,Cc1ccc(CNc2ncnn2-c2cccc(Cl)c2Cl)cc1
6.54,5.86,COc1cccc(CNc2ncnn2-c2cccc(Cl)c2Cl)c1
7.17,6.20,Cc1cccc(CNc2ncnn2-c2cccc(Cl)c2Cl)c1C
7.93,6.53,Cc1ncccc1CNc1ncnn1-c1cccc(Cl)c1Cl
7.51,6.87,COc1cccc(CNc2ncnn2-c2cccc(Cl)c2Cl)c1OC

# Continued, compound first:
SMILES,pIC50 [1],pIC50 [2]
NC(=O)CN1CCCN(c2ncccc2CNc2nncn2-c2cccc(Cl)c2Cl)CC1,7.49,
Cc1ncccc1CNc1nncn1-c1cccc(Cl)c1Cl,7.54,6.75
CS(=O)(=O)c1ccccc1CNc1ncnn1-c1cccc(Cl)c1Cl,7.70,7.40
Clc1cccc(-n2cnnc2NCc2cccnc2N2CCCC2)c1Cl,7.83,7.92
Clc1cccc(-n2cnnc2NCc2cccnc2-c2ccsc2)c1Cl,7.96,7.44
Clc1cccc(-n2ncnc2NCc2cccnc2N2CCCC2)c1Cl,7.90,7.55
Clc1cccc(-n2ncnc2NCc2cccnc2-c2ccsc2)c1Cl,7.82,6.86
Clc1cccc(-n2ncnc2Nc2ccccc2N2CCOCC2)c1Cl,5.47,5.31
CC(C)N1CCCN(c2ncccc2CNc2nncn2-c2cccc(Cl)c2Cl)CC1,7.17,
Clc1cccc(-n2ncnc2NCc2ccccc2Oc2cccnc2)c1Cl,7.33,6.80
Cc1ccccc1Nc1ncnn1-c1cccc(Cl)c1Cl,7.75,6.62
Clc1cccc(-c2nnnn2Cc2cccnc2)c1Cl,6.91,6.51
FC(F)(F)Oc1ccccc1Nc1ncnn1-c1cccc(Cl)c1Cl,6.21,5.26
Clc1cccc(-n2cnnc2NCc2cccnc2Oc2cccnc2)c1Cl,7.51,7.45
CCc1ccccc1Nc1ncnn1-c1cccc(Cl)c1Cl,7.34,6.54
Clc1cccc(-n2ncnc2NCc2cccnc2Oc2cccnc2)c1Cl,7.86,6.89
Clc1cccc(-n2ncnc2NCc2cccnc2N2CCC2)c1Cl,8.04,7.59
Clc1cccc(-n2ncnc2Nc2ccccc2)c1Cl,6.44,5.41
Cc1nnc(NCc2cccnc2-c2ccsc2)n1-c1cccc(Cl)c1Cl,7.40,7.34
Clc1cccc(-n2ncnc2NCc2cccnc2N2CCOCC2)c1Cl,7.55,6.67
CCOc1ccccc1Nc1ncnn1-c1cccc(Cl)c1Cl,5.73,4.96
Clc1cccc(-n2cnnc2NCc2cccnc2)c1Cl,6.45,5.95

# Source: ChEMBL document CHEMBL1143223, “Synthesis and in vitro activity of 1-(2,3-dichlorophenyl)-N-(pyridin-3-ylmethyl)-1H-1,2,4-triazol-5-amine and 4-(2,3-dichlorophenyl)-N-(pyridin-3-ylmethyl)-4H-1,2,4-triazol-3-amine P2X7 antagonists” (Bioorg Med Chem Lett, 2008)
